According to patent US20030219400A1 (priority 2002, published 2003):

Assays:
[1] = test system: macrophage release of pro-inflammatory cytokines, including TNF and IL1B; conditions: intraventricular instillation; cited from earlier work
[2] = test system: PLDS patients; type: in vivo, human
Method: An orally administered checklist monitored symptoms; sequential VCS testing was performed. […] No antibiotics or other therapeutic interventions were administered during the study. Diagnostic parameters used by referring physicians included a history of erythema chronicum migrans (ECM) rash, ELISA assay, Borrelia burgdorferi Western blot, LUAT assay, PCR, CSF antibodies to B. burgdorferi and culture. Patients with a clinical diagnosis of PLDS but without a positive serologic test were included at the discretion of the attending physician.

[3] = test system: SBS patients; conditions: human, in vivo

**Q.** Which “macrophage release of pro-inflammatory cytokines, including TNF and IL1B” value [1] does the source give for “Ser-Tyr-Ser-Met-Glu-His-Phe-Arg-Trp-Gly-Lys-Pro-Val [αMSH]” here?
**A.** down-regulation of macrophage release of pro-inflammatory cytokines

**Q.** What does the source list for `CCc1ccc(CCOc2ccc(CC3SC(=O)NC3=O)cc2)nc1` (stereo not shown) [pioglitazone]?
**A.** adverse effects from pioglitazone, including hypoglycemia or abnormal liver function tests ([2]; 45 mg daily for 10 days): No patients had adverse effects; patients with significant intensification of symptoms, not severe enough to stop treatment ([2]; of 241 patients receiving pioglitazone, CSM added on day 6): 5 patients

**Q.** For cholestyramine [CSM], which “other complications of therapy” value [3] is on record?
**A.** No other significant complications of therapy were noted
